Marks after values point to notes of the source that are not given here.
Assays:
[1] = system: prostate cancer cell lines (PC-3, DU145 and LNCaP); experiment: MTT cytotoxicity assay, prostate cancer cell lines as a group; type: cell-based, human; conditions: 24 h
Description: (§1) The LNCaP cells were grown in RPMI 1640 medium(Gibco Invitrogen, CA) containing 10% FBS and 1% penicillin/streptomycin and the DU145 cells were grown in Eagle’s minimum essential medium (MEM) (Gibco Invitrogen, CA) with 2 mM L-glutamine and Earle’s BSS, 1.5 g/L sodium bicarbonate, 0.1mM non-essential amino acids, 1 mM sodium pyruvate, 10% FBS and 1% penicillin/streptomycin.
(§2) The cytotoxic effect of MTX, [Dlys^6]-LHRH, and [Dlys^6]-LHRH-MTX was evaluated using the methylthiazol tetrazolium (MTT) assay (Sigma Aldrich, MO), which determines the number of viable cells from the formazan crystals produced by metabolic activity.
(§3) In the equation, T represents the absorption value of the treatment group; C is the absorption value of the control (untreated) group; and B refers to the absorption value of the culture medium. IC50 values (μg/mL) were calculated with SPSS software. In a competition assay, Prostate cancer cells (5,000 per well) were separately incubated in 96-well plates in triplicate with [DLys^6]-LHRH–MTX alone and [DLys^6]-LHRH free peptide and [DLys^6]-LHRH–MTX together, and the cells were incubated for 24 hr. The plates were then analyzed with the MTT method.

PC-3 tumor xenografts = experiment: In vivo anti-tumor activity, PC-3 tumor xenografts; set-up: species or system athymic BALB/c nude mice; conditions: for effect on tumor volume / Mean tumor weight / Mean tumor volume, Final: end of study; for Inhibition ratio of tumor weight / Inhibition ratio of tumor volume: against saline; for Inhibition ratio of tumor weight / Inhibition ratio of tumor volume / Mean tumor volume, Initial / Mean tumor weight / Mean tumor volume, Final / Tumor volume doubling time: n = 10; for Inhibition ratio of tumor volume / Tumor volume doubling time: i.v. twice weekly for 4 weeks; for Mean tumor volume, Initial: baseline, nude mice with PC-3 xenografts; for Mean tumor volume, Initial / Mean tumor weight / Mean tumor volume, Final: means ± SD; for Mean tumor volume, Final: i.v. tail vein twice weekly for 4 weeks; for Tumor volume doubling time: saline control 6.13 days
Description: Four week-old male athymic BALB/c nude mice were obtained from Sino-British SIPPR/BK Laboratory Animal Ltd (Shanghai, China). The animals were housed in sterile cages under laminar flow hoods in a temperature-controlled room with a 12h light/12h dark schedule and were fed autoclaved chow and water ad libitum.
PC-3 cells were harvested from subconfluent cultures after a brief exposure to 0.25% trypsin and 0.2% EDTA. Trypsinization was stopped by adding medium containing 10% FBS. The cells were washed once in serum-free medium and resuspended in PBS. Only suspensions consisting of single cells with >90% viability were used for the injections. PC-3 cells (1 × 10^7) in 100 μL PBS suspended in Matrigel (0.1 mg, Collaborative Biomedical Products Becton Dickinson Labware, Bedford, MA) were injected subcutaneously into the interscapular area using a 27-gauge needle.
On day 21, after PC-3 cell implantation, mice bearing tumors […] were randomized into the following four treatment groups (n = 10): saline controls, MTX treatment, [Dlys^6]-LHRH-MTX treatment and MTX plus [Dlys^6]-LHRH treatment. Treatments were made in 100 μL PBS and were given intravenously by tail vein injection twice weekly for 4 weeks. The vehicle-treated group received an equivalent amount of PBS. Tumor volumes were measured with calipers and the body weights of the mice were measured twice a week. Tumor volumes were calculated with the following formula: V(mm^3) = length × width^2/2, where width represents the shortest measurement in millimeters. The animals were euthanized 7 days after the last treatment. Body weights, tumor weights and organ weights were recorded.

[2] = system: normal human prostate fibroblast (HPrF) cells
Description: (§4) To determine the selectivity of LHRH-MTX, we performed a MTT experiment with normal human prostate fibroblast (HPrF) cells.
(§5) HPrF cells were exposed to MTX or [DLys^6]-LHRH-MTX at 0.015-1000 μmol/L. Growth inhibition was determined by MTT assay.
(§6) PC-3 cells and HPrF cells were maintained in T-media (Gibco Invitrogen, CA) supplemented with 10% fetal bovine serum (FBS) (Gibco Invitrogen, CA) and 1% penicillin/streptomycin (Cellgro Mediatech, nc., VA). […]
(§7) The cytotoxic effect of MTX, [Dlys^6]-LHRH, and [Dlys^6]-LHRH-MTX was evaluated using the methylthiazol tetrazolium (MTT) assay (Sigma Aldrich, MO), which determines the number of viable cells from the formazan crystals produced by metabolic activity[26][33][34]. […] The absorption at 570 nm was recorded with an ELISA plate reader (Bio-Rad, Microplate Reader 550 and the growth inhibitory (GI) rate was calculated according to the following equation: GI(%) = 100 − [T − B)/(C − B) × 100].

PC-3 cells [3] = experiment: MTT cytotoxicity assay, PC-3 cells; type: cell-based; conditions: Homo sapiens, 24 h treatment, means ± SD, n = 3
DU145 cells = experiment: MTT cytotoxicity assay, DU145 cells; type: cell-based; conditions: Homo sapiens, DU-145, 24 h treatment, means ± SD, n = 3
Description: as §1, §2, §3

LNCaP cells = experiment: MTT cytotoxicity assay, LNCaP cells; type: cell-based; conditions: Homo sapiens, 24 h treatment, means ± SD, n = 3
Description: as §1, §2, §3

PC-3 cells [4] = experiment: Apoptosis analysis, Annexin V-FITC/PI staining, flow cytometry; type: cell-based, human; conditions: 24 h; for late apoptotic/early necrotic (AV+/PI+) cells: quadrant B2; for early apoptotic (AV+/PI−) populations: quadrant B4
Description: To quantitatively investigate apoptotic and early necrotic events in these treated cultures, the fluorescent probe Annexin V-FITC and PI were used, The presence of a apoptotic and early necrotic cells was then determined and quantified by flow cytometry analysis which clearly differentiated normal cells with low Annexin V-FITC and low PI staining, apoptotic cells with high Annexin V-FITC and low PI staining, necrotic cells with high Annexin V-FITC and high PI staining and cell debris with low Annexin VFITC and high PI staining.
Figure 4 Quantitative apoptotic measurement in PC-3 cells after treatment with [DLys^6]-LHRH-MTX and MTX, the concentration-dependent effects on apoptosis following treatment with MTX and [DLys^6]-LHRH-MTX for 24 at doses of 0.98 μmol/L and 3.91 μmol/L were determined by flow cytometry analysis. Results were expressed as a dot plot of Annexin V -FITC vs. PI. […]
To quantitatively evaluate the induction of apoptosis by flow cytometry, Annexin-V-FITC/PI staining was performed. Briefly, PC-3 cells were seeded in a 6-well culture plate at a density of 2 × 10^5 cells per well, and treated with various concentrations of MTX or [Dlys^6]-LHRH or [Dlys^6]-LHRH-MTX for 24 h. The cells were harvested and then stained with Annexin V-FITC/PI solution (1:1, v/v, […]) in the dark for 15 min at room temperature. After washing with PBS, the cell suspensions in buffer were gently vortexed, and analyzed within 1 h by flow cytometry (Beckton Dickinson, CA, […]).

[5] = system: normal human prostate fibroblast (HPrF) cells; experiment: cells
Description: as §4, §5, §6, §7

Row | Compound | cytotoxicity against prostate cancer cell lines [1] | histology of tumor sections, hematoxylin/eosin (PC-3 tumor xenografts; PC-3 xenografts, Fig. 7) | effect on tumor volume (PC-3 tumor xenografts; PC-3 xenografts) | Inhibition ratio of tumor weight (PC-3 tumor xenografts) [%] | Inhibition ratio of tumor volume (PC-3 tumor xenografts) [%] | Mean tumor volume, Initial (PC-3 tumor xenografts) [mm3] | tumor burden (PC-3 tumor xenografts; day 30, n = 10, Fig. 6) | Mean tumor weight (PC-3 tumor xenografts) | Mean tumor volume, Final (PC-3 tumor xenografts) | Tumor volume doubling time (PC-3 tumor xenografts) [days] | cytotoxicity against HPrF cells [2] | IC50 (PC-3 cells [3]) [µM] | IC50 (DU145 cells) [µM] | IC50 (LNCaP cells) [µM] | late apoptotic/early necrotic (AV+/PI+) cells (PC-3 cells [4]; PC-3, 0.98 μmol/L) [%] | early apoptotic (AV+/PI−) populations (PC-3 cells [4]; PC-3, 0.98 μmol/L) [%] | late apoptotic/early necrotic (AV+/PI+) cells (PC-3 cells [4]; PC-3, 3.91 μmol/L) [%] | early apoptotic (AV+/PI−) populations (PC-3 cells [4]; PC-3, 3.91 μmol/L) [%] | IC50 [5] [µM]
1 | [DLys^6]-LHRH | no cytotoxicity | predominantly viable cells | did not affect the tumor volume | 4.41 | 2.88 | 62.49 ± 13.70 | unchanged | 1.95 ± 0.34 g | 1784.58 ± 95.99 mm3 | 6.13 | no cytotoxicity |  |  |  |  |  |  |  | 
2 | CN(Cc1cnc2nc(N)nc(N)c2n1)c1ccc(C(=O)N[C@@H](CCC(=O)O)C(=O)O)cc1 [MTX, Methotrexate] |  |  | significant anti-tumor effects | 59.90 | 61.88 | 63.38 ± 7.38 |  | 0.82 ± 0.12 ^a g | 700.39 ± 36.48 ^a mm3 | 8.88 |  | 6.34 ± 1.01 | 8.03 ± 1.29 | 9.68 ± 1.24 | 8.35 | 15.38 | 9.52 | 30.88 | 42.3 ± 7.25

Reference: article PMC5032167, “A conjugate of methotrexate and an analog of luteinizing hormone releasing hormone shows increased efficacy against prostate cancer” (Scientific Reports, 2016)
